Laboratory results reported in patent US20100196321A1, “COMPOUNDS” (GLAXOSMITHKLINE LLC, priority 2009, published 2010).

Legend:
[1] = system: sub-genomic HCV NS3-NS5B replicon of genotype 1a in Huh-7 cells; experiment: Replicon Luciferase Cell Based Assay, genotype 1a; parameters: species or system HCV genotype 1a; conditions: Hepatitis C virus, Huh-7, 48 hours
Experimental: (§1) A 10 mM stock solution in DMSO of each test compound was further diluted in DMSO in the first row of a 384-well, V-bottom microplate, to give 100 times the top concentration of the required dilution series. Dilutions of compound were prepared in 1:3 serial dilutions from the first row onwards robotically. A robot was also used to transfer 0.5 μL volumes from each dilution well into wells of white 384-well assay plates (Nunc #164610). Control wells received 0.5 μL of DMSO alone. Plates were made in duplicate for measuring HCV replication and cytotoxicity in the replicon cell lines.
(§2) Suspensions were prepared from cultures of Huh-7 cells stably transfected with sub-genomic HCV NS3—NS5B replicons of either genotype 1b (the ET subline described by Pietschmann, T., Lohmann, V., Kaul, A., Krieger, N., Rinck, G., Rutter, G., Strand, D. & Bartenschlager, R., Journal of Virology, 2002, 76, 4008-4021) or genotype 1a linked to a firefly luciferase reporter gene. Monolayers nearing confluency were stripped from growth flasks with versene-trypsin solution and the cells re-suspended in assay medium comprising DMEM (Invitrogen #11965-092) supplemented with 5% v/v foetal calf serum, 1% v/v non-essential amino acids solution, 100 units/ml penicillin, 100 μg/ml streptomycin and 2 mM GlutaMAX-1. 50 μL of suspension containing 5,000 cells of either genotype 1b or genotype 1a luciferase replicon were added to all wells, except medium controls, of the assay plate with a Multidrop Combi (Thermo Scientific Corporation) and the plate incubated for 48 hours at 37° C. in a 5% CO2 atmosphere. A solution of Steady-Glo cytolytic buffer/luciferase substrate (Promega #E2550) was prepared according to the manufacturer's instructions, and 20 μL were added to each well with a Multidrop Combi. To measure cytotoxicity, a solution of CellTiter-Glo Luminescent Cell Viability Assay reagent (Promega #G7573) was prepared according to the manufacturer's instructions, and 20 ul were added to each well with a Multidrop Combi. The plates were then read for luminescence on an Envision Multilabel Reader (Perkin Elmer)
(§3) Potency: The luminescence values from all compound-free wells containing cells were averaged to obtain a positive control value. The mean luminescence value from the compound-free wells that had received no cells was used to provide the negative (background) control value. After the subtraction of the mean background from all values, the readings from wells at each compound concentration were expressed as a percentage of the positive control signal. The quantifiable and specific reduction of luciferase signal in the presence of a drug is a direct measure of replicon inhibition. The BioAssay application and XC50 module were used to plot the curve of percentage inhibition against compound concentration and derive the 50% inhibitory concentration (IC50) for the compound.

[2] = system: sub-genomic HCV NS3-NS5B replicon of genotype 1b (ET subline) in Huh-7 cells; experiment: Replicon Luciferase Cell Based Assay, genotype 1b; parameters: species or system HCV genotype 1b; conditions: Hepatitis C virus, Huh-7, 48 h, read-out: Genotype 1b (IC50 μM)
Experimental: as §1, §2, §3

Row | SMILES | IC50 [1] [µM] | IC50 [2] [µM]
1 | COc1ccc2c(O[C@@H]3C[C@H]4C(=O)N[C@]5(C(=O)NS(=O)(=O)C6CC6)C[C@H]5/C=C\CCCCC[C@H](NC(=O)N(C)C)C(=O)N4C3)cc(-c3nc(C4CC4)cs3)nc2c1C [Example 6, (2R,6S,13aS,14aR,16aS)-N-(cyclopropylsulfonyl)-2-{[2-(4-cyclopropyl-1,3-thiazol-2-yl)-8-methyl-7-(methyloxy)-4-quinolinyl]oxy}-6-{[(dimethylamino)carbonyl]amino}-5,16-dioxo-1,2,3,6,7,8,9,10,11,13a,14,15,16,16a-tetradecahydrocyclopropa[e]pyrrolo[1,2-a][1,4]diazacyclopentadecine-14a(5H)-carboxamide] | < 0.01 | < 0.01
2 | COc1ccc2c(O[C@@H]3C[C@H]4C(=O)N[C@]5(C(=O)NS(=O)(=O)C6CC6)C[C@H]5/C=C\CCCCC[C@H](NC(=O)N5CCS(=O)(=O)CC5)C(=O)N4C3)cc(-c3nc(C(C)C)cs3)nc2c1C [Example 12, (2R,6S,13aS,14aR,16aS)-N-(cyclopropylsulfonyl)-6-{[(1,1-dioxido-4-thiomorpholinyl)carbonyl]amino}-2-{[8-methyl-2-[4-(1-methylethyl)-1,3-thiazol-2-yl]-7-(methyloxy)-4-quinolinyl]oxy}-5,16-dioxo-1,2,3,6,7,8,9,10,11,13a,14,15,16,16a-tetradecahydrocyclopropa[e]pyrrolo[1,2-a][1,4]diazacyclopentadecine-14a(5H)-carboxamide] | < 0.01 | < 0.01
3 | COc1ccc2c(O[C@@H]3C[C@H]4C(=O)N[C@]5(C(=O)NS(=O)(=O)C6CC6)C[C@H]5/C=C\CCCCC[C@H](NC(=O)N5CCC(c6ccccc6)CC5)C(=O)N4C3)cc(-c3nc(C(C)C)cs3)nc2c1C [Example 20, (2R,6S,13aS,14aR,16aS)-N-(cyclopropylsulfonyl)-2-{[8-methyl-2-[4-(1-methylethyl)-1,3-thiazol-2-yl]-7-(methyloxy)-4-quinolinyl]oxy}-5,16-dioxo-6-{[(4-phenyl-1-piperidinyl)carbonyl]amino}-1,2,3,6,7,8,9,10,11,13a,14,15,16,16a-tetradecahydrocyclopropa[e]pyrrolo[1,2-a][1,4]diazacyclopentadecine-14a(5H)-carboxamide] | < 0.01 | < 0.01
4 | COc1ccc2c(O[C@@H]3C[C@H]4C(=O)N[C@]5(C(=O)NS(=O)(=O)C6CC6)C[C@H]5/C=C\CCCCC[C@H](NC(=O)N5CCC(O)CC5)C(=O)N4C3)cc(-c3nc(C(C)C)cs3)nc2c1C [Example 22, (2R,6S,13aS,14aR,16aS)-N-(cyclopropylsulfonyl)-6-{[(4-hydroxy-1-piperidinyl)carbonyl]amino}-2-{[8-methyl-2-[4-(1-methylethyl)-1,3-thiazol-2-yl]-7-(methyloxy)-4-quinolinyl]oxy}-5,16-dioxo-1,2,3,6,7,8,9,10,11,13a,14,15,16 ,16a-tetradecahydrocyclopropa[e]pyrrolo[1,2-a][1,4]diazacyclopentadecine-14a(5H)-carboxamide] | < 0.01 | < 0.01
5 | COCCN(C)C(=O)N[C@H]1CCCCC/C=C\[C@@H]2C[C@@]2(C(=O)NS(=O)(=O)C2CC2)NC(=O)[C@@H]2C[C@@H](Oc3cc(-c4nc(C5CC5)cs4)nc4c(Cl)c(OC)ccc34)CN2C1=O [Example 28, (2R,6S,13aS,14aR,16aS)-2-{[8-chloro-2-(4-cyclopropyl-1,3-thiazol-2-yl)-7-(methyloxy)-4-quinolinyl]oxy}-N-(cyclopropylsulfonyl)-6-[({methyl[2-(methyloxy)ethyl]amino}carbonyl)amino]-5,16-dioxo-1,2,3,6,7,8,9,10,11,13a,14,15,16,16a-tetradecahydrocyclopropa[e]pyrrolo[1,2-a][1,4]diazacyclopentadecine-14a(5H)-carboxamide] | < 0.01 | < 0.01
6 | CCCN(CC1CC1)C(=O)N[C@H]1CCCCC/C=C\[C@@H]2C[C@@]2(C(=O)NS(=O)(=O)C2CC2)NC(=O)[C@@H]2C[C@@H](Oc3cc(-c4nc(C(C)C)cs4)nc4c(C)c(OC)ccc34)CN2C1=O [Example 19, (2R,6S,13aS,14aR,16aS)-6-({[(cyclopropylmethyl)(propyl)amino]carbonyl}amino)-N-(cyclopropylsulfonyl)-2-{[8-methyl-2-[4-(1-methylethyl)-1,3-thiazol-2-yl]-7-(methyloxy)-4-quinolinyl]oxy}-5,16-dioxo-1,2,3,6,7,8,9,10,11,13a,14,15,16,16a-tetradecahydrocyclopropa[e]pyrrolo[1,2-a][1,4]diazacyclopentadecine-14a(5H)-carboxamide] | < 0.01 | < 0.01
7 | COc1ccc2c(O[C@@H]3C[C@H]4C(=O)N[C@]5(C(=O)NS(=O)(=O)C6CC6)C[C@H]5/C=C\CCCCC[C@H](NC(=O)N5CCC(CO)CC5)C(=O)N4C3)cc(-c3nc(C(C)C)cs3)nc2c1C [Example 25, (2R,6S,13aS,14aR,16aS)-N-(cyclopropylsulfonyl)-6-({[4-(hydroxymethyl)-1-piperidinyl]carbonyl}amino)-2-{[8-methyl-2-[4-(1-methylethyl)-1,3-thiazol-2-yl]-7-(methyloxy)-4-quinolinyl]oxy}-5,16-dioxo-1,2,3,6,7,8,9,10,11,13a,14,15,16,16a-tetradecahydrocyclopropa[e]pyrrolo[1,2-a][1,4]diazacyclopentadecine-14a(5H)-carboxamide] | < 0.01 | < 0.01
8 | COc1ccc2c(O[C@@H]3C[C@H]4C(=O)N[C@]5(C(=O)NS(=O)(=O)C6CC6)C[C@H]5/C=C\CCCCC[C@H](NC(=O)N5CCN(C6CCCC6)CC5)C(=O)N4C3)cc(-c3nc(C(C)C)cs3)nc2c1C [Example 13, (2R,6S,13aS,14aR,16aS)-6-{[(4-cyclopentyl-1-piperazinyl)carbonyl]amino}-N-(cyclopropylsulfonyl)-2-{[8-methyl-2-[4-(1-methylethyl)-1,3-thiazol-2-yl]-7-(methyloxy)-4-quinolinyl]oxy}-5,16-dioxo-1,2,3,6,7,8,9,10,11,13a,14,15,16,16a-tetradecahydrocyclopropa[e]pyrrolo[1,2-a][1,4]diazacyclopentadecine-14a(5H)-carboxamide] | < 0.01 | < 0.01
9 | COc1ccc2c(O[C@@H]3C[C@H]4C(=O)N[C@]5(C(=O)NS(=O)(=O)C6CC6)C[C@H]5/C=C\CCCCC[C@H](NC(=O)N5CCC(N6CCCC6)CC5)C(=O)N4C3)cc(-c3nc(C(C)C)cs3)nc2c1C [Example 21, (2R,6S,13aS,14aR,16aS)-N-(cyclopropylsulfonyl)-2-{[8-methyl-2-[4-(1-methylethyl)-1,3-thiazol-2-yl]-7-(methyloxy)-4-quinolinyl]oxy}-5,16-dioxo-6-({[4-(1-pyrrolidinyl)-1-piperidinyl]carbonyl}amino)-1,2,3,6,7,8,9,10,11,13a,14,15,16,16a-tetradecahydrocyclopropa[e]pyrrolo[1,2-a][1,4]diazacyclopentadecine-14a(5H)-carboxamide] | < 0.01 | < 0.01
10 | COc1ccc2c(O[C@@H]3C[C@H]4C(=O)N[C@]5(C(=O)NS(=O)(=O)C6CC6)C[C@H]5/C=C\CCCCC[C@H](NC(=O)N5CC6CCCC6C5)C(=O)N4C3)cc(-c3nc(C(C)C)cs3)nc2c1C (stereo partly drawn) [Example 24, (2R,6S,13aS,14aR,16aS)-N-(cyclopropylsulfonyl)-6-[(hexahydrocyclopenta[c]pyrrol-2(1H)-ylcarbonyl)amino]-2-{[8-methyl-2-[4-(1-methylethyl)-1,3-thiazol-2-yl]-7-(methyloxy)-4-quinolinyl]oxy}-5,16-dioxo-1,2,3,6,7,8,9,10,11,13a,14,15,16,16a-tetradecahydrocyclopropa[e]pyrrolo[1,2-a][1,4]diazacyclopentadecine-14a(5H)-carboxamide] | < 0.01 | < 0.01
